Assay results: PubChem BioAssay (NCI)
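These data come from cells grown in 96-well plates and exposed to compound for 48 hours at five concentrations. The concentration for full growth arrest is given as TGI.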

Tests used:
Test in all cases: NCI-60 cell line screen, 48 h
CAKI-1 renal = system: CAKI-1 renal
UACC-257 melanoma = system: UACC-257 melanoma
HS 578T breast = system: HS 578T breast
CCRF-CEM leukemia = system: CCRF-CEM leukemia
HT29 colon = system: HT29 colon
SF-539 CNS = system: SF-539 CNS
MDA-N = system: MDA-N
SNB-19 CNS = system: SNB-19 CNS
MCF7 breast = system: MCF7 breast
SK-MEL-28 melanoma = system: SK-MEL-28 melanoma
UACC-62 melanoma = system: UACC-62 melanoma
IGROV1 ovarian = system: IGROV1 ovarian
NCI/ADR-RES ovarian = system: NCI/ADR-RES ovarian
HOP-92 NSCLC = system: HOP-92 NSCLC
MDA-MB-435 = system: MDA-MB-435
RXF 393 renal = system: RXF 393 renal
U251 CNS = system: U251 CNS
786-0 renal = system: 786-0 renal
ACHN renal = system: ACHN renal
NCI-H522 lung = system: NCI-H522 lung
SR leukemia = system: SR leukemia
SNB-75 CNS = system: SNB-75 CNS
SK-OV-3 ovarian = system: SK-OV-3 ovarian
RPMI-8226 leukemia = system: RPMI-8226 leukemia
OVCAR-8 ovarian = system: OVCAR-8 ovarian
HCT-15 colon = system: HCT-15 colon
SF-295 CNS = system: SF-295 CNS
DU-145 prostate = system: DU-145 prostate
SN12C renal = system: SN12C renal
EKVX NSCLC = system: EKVX NSCLC
KM12 colon = system: KM12 colon
SF-268 CNS = system: SF-268 CNS
HL-60(TB) leukemia = system: HL-60(TB) leukemia
PC-3 prostate = system: PC-3 prostate
M14 melanoma = system: M14 melanoma
COLO 205 colon = system: COLO 205 colon
SK-MEL-2 melanoma = system: SK-MEL-2 melanoma
OVCAR-3 ovarian = system: OVCAR-3 ovarian
TK-10 renal = system: TK-10 renal
T-47D breast = system: T-47D breast
A549 NSCLC = system: A549 NSCLC
OVCAR-4 ovarian = system: OVCAR-4 ovarian
UO-31 renal = system: UO-31 renal
BT-549 breast = system: BT-549 breast
HCC-2998 colon = system: HCC-2998 colon
HCT-116 colon = system: HCT-116 colon
OVCAR-5 ovarian = system: OVCAR-5 ovarian
NCI-H226 lung = system: NCI-H226 lung
MOLT-4 leukemia = system: MOLT-4 leukemia
K-562 leukemia = system: K-562 leukemia
HOP-62 NSCLC = system: HOP-62 NSCLC
NCI-H460 lung = system: NCI-H460 lung
NCI-H23 lung = system: NCI-H23 lung
MALME-3M melanoma = system: MALME-3M melanoma
MDA-MB-231 breast = system: MDA-MB-231 breast
SK-MEL-5 melanoma = system: SK-MEL-5 melanoma
LOX IMVI melanoma = system: LOX IMVI melanoma
SW-620 colon = system: SW-620 colon

`CC(C)(O)C1CC[C@]2(C)CC[C@]3(C)[C@H](CC[C@@H]4[C@@]5(C)CC[C@H](O)C(C)(C)[C@@H]5CC[C@]43C)[C@@H]12` (stereo partly drawn) gave a TGI (CAKI-1 renal) of 45.6 µM, a TGI (UACC-257 melanoma) of 50.2 µM and a TGI (HS 578T breast) of 68.1 µM. The TGI (CCRF-CEM leukemia) was > 100 µM, the TGI (HT29 colon) was > 100 µM and the TGI (SF-539 CNS) was 55.4 µM. The TGI (MDA-N) was > 100 µM, the TGI (SNB-19 CNS) was > 100 µM and the TGI (MCF7 breast) was > 100 µM. The TGI (SK-MEL-28 melanoma) was 67.7 µM, the TGI (UACC-62 melanoma) was > 100 µM and the TGI (IGROV1 ovarian) was 85.8 µM. For the same compound, the TGI (NCI/ADR-RES ovarian) was 82.4 µM, the TGI (HOP-92 NSCLC) was 44.1 µM and the TGI (MDA-MB-435) was > 100 µM. For the same compound, the TGI (RXF 393 renal) was > 100 µM, the TGI (U251 CNS) was > 100 µM and the TGI (786-0 renal) was 78.1 µM. The TGI (ACHN renal) was 71.3 µM, the TGI (NCI-H522 lung) was 73.2 µM and the TGI (SR leukemia) was > 100 µM. For the same compound, the TGI (SNB-75 CNS) was 45.7 µM, the TGI (SK-OV-3 ovarian) was 49.3 µM and the TGI (RPMI-8226 leukemia) was > 100 µM. The TGI (OVCAR-8 ovarian) was > 100 µM, the TGI (HCT-15 colon) was > 100 µM and the TGI (SF-295 CNS) was 57.6 µM. The TGI (DU-145 prostate) was 57.9 µM, the TGI (SN12C renal) was > 100 µM and the TGI (EKVX NSCLC) was 44.5 µM. For the same compound, the TGI (KM12 colon) was 89.3 µM, the TGI (SF-268 CNS) was > 100 µM and the TGI (HL-60(TB) leukemia) was > 100 µM. For the same compound, the TGI (PC-3 prostate) was > 100 µM, the TGI (M14 melanoma) was 95.4 µM and the TGI (COLO 205 colon) was 92.2 µM. The TGI (SK-MEL-2 melanoma) was 62.5 µM, the TGI (OVCAR-3 ovarian) was 50.7 µM and the TGI (TK-10 renal) was 53.3 µM. For the same compound, the TGI (T-47D breast) was 66.2 µM, the TGI (A549 NSCLC) was > 100 µM and the TGI (OVCAR-4 ovarian) was 78.3 µM. The TGI (UO-31 renal) was > 100 µM, the TGI (BT-549 breast) was 60.9 µM and the TGI (HCC-2998 colon) was 51.9 µM. The TGI (HCT-116 colon) was 59.4 µM, the TGI (OVCAR-5 ovarian) was 75.9 µM and the TGI (NCI-H226 lung) was > 100 µM. The TGI (MOLT-4 leukemia) was > 100 µM, the TGI (K-562 leukemia) was > 100 µM and the TGI (HOP-62 NSCLC) was 84.3 µM. For the same compound, the TGI (NCI-H460 lung) was > 100 µM, the TGI (NCI-H23 lung) was > 100 µM and the TGI (MALME-3M melanoma) was 57.7 µM. For the same compound, the TGI (MDA-MB-231 breast) was > 100 µM and the TGI (SK-MEL-5 melanoma) was > 100 µM.
`c1ccc2[nH]c(C3CCCCO3)nc2c1` (stereo not drawn) was tested, and the TGI (CAKI-1 renal) was > 100 µM, the TGI (UACC-257 melanoma) was > 100 µM and the TGI (HS 578T breast) was > 100 µM. For the same compound, the TGI (CCRF-CEM leukemia) was > 100 µM, the TGI (HT29 colon) was > 100 µM and the TGI (SF-539 CNS) was > 100 µM. The TGI (MDA-N) was > 100 µM, the TGI (SNB-19 CNS) was > 100 µM and the TGI (MCF7 breast) was > 100 µM. The TGI (SK-MEL-28 melanoma) was > 100 µM, the TGI (UACC-62 melanoma) was > 100 µM and the TGI (IGROV1 ovarian) was > 100 µM. For the same compound, the TGI (NCI/ADR-RES ovarian) was > 100 µM, the TGI (HOP-92 NSCLC) was > 100 µM and the TGI (MDA-MB-435) was > 100 µM. For the same compound, the TGI (RXF 393 renal) was > 100 µM, the TGI (U251 CNS) was > 100 µM and the TGI (LOX IMVI melanoma) was > 100 µM. For the same compound, the TGI (786-0 renal) was > 100 µM, the TGI (ACHN renal) was > 100 µM and the TGI (NCI-H522 lung) was > 100 µM. For the same compound, the TGI (SR leukemia) was > 100 µM, the TGI (SNB-75 CNS) was > 100 µM and the TGI (SK-OV-3 ovarian) was > 100 µM. For the same compound, the TGI (RPMI-8226 leukemia) was > 100 µM, the TGI (OVCAR-8 ovarian) was > 100 µM and the TGI (HCT-15 colon) was > 100 µM. The TGI (SF-295 CNS) was > 100 µM, the TGI (DU-145 prostate) was > 100 µM and the TGI (SN12C renal) was > 100 µM. For the same compound, the TGI (EKVX NSCLC) was > 100 µM, the TGI (KM12 colon) was > 100 µM and the TGI (SF-268 CNS) was > 100 µM. The TGI (HL-60(TB) leukemia) was > 100 µM, the TGI (PC-3 prostate) was > 100 µM and the TGI (M14 melanoma) was > 100 µM. The TGI (COLO 205 colon) was > 100 µM, the TGI (SW-620 colon) was > 100 µM and the TGI (SK-MEL-2 melanoma) was > 100 µM. The TGI (OVCAR-3 ovarian) was > 100 µM, the TGI (TK-10 renal) was > 100 µM and the TGI (T-47D breast) was > 100 µM. The TGI (A549 NSCLC) was > 100 µM, the TGI (OVCAR-4 ovarian) was > 100 µM and the TGI (UO-31 renal) was > 100 µM. For the same compound, the TGI (BT-549 breast) was > 100 µM, the TGI (HCC-2998 colon) was > 100 µM and the TGI (HCT-116 colon) was > 100 µM. For the same compound, the TGI (OVCAR-5 ovarian) was > 100 µM, the TGI (NCI-H226 lung) was > 100 µM and the TGI (MOLT-4 leukemia) was > 100 µM. For the same compound, the TGI (K-562 leukemia) was > 100 µM, the TGI (HOP-62 NSCLC) was > 100 µM and the TGI (NCI-H23 lung) was > 100 µM. For the same compound, the TGI (MALME-3M melanoma) was > 100 µM, the TGI (MDA-MB-231 breast) was > 100 µM and the TGI (SK-MEL-5 melanoma) was > 100 µM.
